In patent US12662451B2, “Chemical compounds and uses thereof” (GLAXOSMITHKLINE INTELLECTUAL PROPERTY (NO.4) LIMITED, priority 2023, dated 2026):
Like-named read-outs stand apart in the source and are kept apart here.

How the values were obtained:
[1] = target: T1, recombinant full-length WRN protein (1-1432) (Homo sapiens, UniProt Q14191); test: WRN unwinding activity, fluorogenic 384-well assay (Example A); format: biochemical; settings: WRN unwinding activity, 4 hr; Table 2; read-out: 4 hr UNW pIC50 (converted)
T1 construct: recombinant full-length WRN protein (1-1432)
T1 sequence (Q14191 whole entry): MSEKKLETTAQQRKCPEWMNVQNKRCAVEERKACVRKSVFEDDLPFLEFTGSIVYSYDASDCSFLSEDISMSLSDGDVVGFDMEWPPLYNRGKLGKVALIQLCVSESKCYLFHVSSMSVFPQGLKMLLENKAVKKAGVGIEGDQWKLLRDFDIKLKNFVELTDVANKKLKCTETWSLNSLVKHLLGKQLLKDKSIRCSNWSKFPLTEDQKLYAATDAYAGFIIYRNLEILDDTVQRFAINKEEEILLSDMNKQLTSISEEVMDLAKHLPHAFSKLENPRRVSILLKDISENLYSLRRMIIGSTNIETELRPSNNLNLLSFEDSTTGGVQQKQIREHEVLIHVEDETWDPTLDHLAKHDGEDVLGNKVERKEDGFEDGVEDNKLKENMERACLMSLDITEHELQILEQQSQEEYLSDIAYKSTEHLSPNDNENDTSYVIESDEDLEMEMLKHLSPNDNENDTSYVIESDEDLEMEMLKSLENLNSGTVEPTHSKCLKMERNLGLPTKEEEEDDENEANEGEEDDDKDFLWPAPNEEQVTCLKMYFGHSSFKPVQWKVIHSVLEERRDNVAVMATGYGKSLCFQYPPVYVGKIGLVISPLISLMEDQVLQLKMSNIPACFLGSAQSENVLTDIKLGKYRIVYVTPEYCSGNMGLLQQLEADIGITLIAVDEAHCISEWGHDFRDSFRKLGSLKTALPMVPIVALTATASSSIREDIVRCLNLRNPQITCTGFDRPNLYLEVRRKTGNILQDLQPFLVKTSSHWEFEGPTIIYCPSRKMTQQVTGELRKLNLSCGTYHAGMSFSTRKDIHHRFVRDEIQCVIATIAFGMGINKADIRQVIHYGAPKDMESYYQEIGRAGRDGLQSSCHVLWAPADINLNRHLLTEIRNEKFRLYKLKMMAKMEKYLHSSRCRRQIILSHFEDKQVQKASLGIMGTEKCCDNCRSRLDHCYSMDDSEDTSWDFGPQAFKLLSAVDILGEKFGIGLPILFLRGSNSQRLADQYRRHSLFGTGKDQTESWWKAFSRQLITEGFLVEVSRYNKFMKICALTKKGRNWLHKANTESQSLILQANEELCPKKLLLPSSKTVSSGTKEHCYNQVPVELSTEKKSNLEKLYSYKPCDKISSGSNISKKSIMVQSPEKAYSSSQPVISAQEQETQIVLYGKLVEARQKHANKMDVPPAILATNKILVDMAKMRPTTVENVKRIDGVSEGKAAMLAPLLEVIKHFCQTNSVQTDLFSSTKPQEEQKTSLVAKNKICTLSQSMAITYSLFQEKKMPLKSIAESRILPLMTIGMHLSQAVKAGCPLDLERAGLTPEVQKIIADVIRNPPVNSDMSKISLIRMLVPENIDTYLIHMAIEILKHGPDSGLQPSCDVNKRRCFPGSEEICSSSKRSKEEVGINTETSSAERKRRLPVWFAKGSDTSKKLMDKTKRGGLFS
Method in brief: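 200 pM enzyme (2× stock) preincubated with compound 4 h at ambient temperature, then 200 μM ATP and 12 nM quenched TAMRA-labelled dsDNA (2× stocks) added for 60 min; EDTA-quenched. Buffer 25 mM Tris pH 8.0, 5 mM NaCl, 2 mM MgCl2. Fluorescence at 525/598 nm; pIC50 from four-parameter fit.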

[2] = Cell culture media unbound percentage and stability by rapid equilibrium dialysis (Example C); format: in vitro ADME; settings: bovine, cell assay medium (RPMI-1640 with 10% fetal bovine serum), pH 7.4, rapid equilibrium dialysis, 4 hours at 37° C., read-out: Cell Culture Media Binding (% unbound)
Method in brief: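 Compound spiked into cell culture medium at nominal 1 μM and dialysed against PBS (100 mM sodium phosphate + 150 mM NaCl, pH 7.4) by rapid equilibrium dialysis, triplicate, 4 h at 37° C with shaking. LC-MS/MS peak area ratios gave percent unbound (receiver/donor) and percent stability (240 min vs 0 min).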

[3] = test system: SW48 human colorectal cancer cells; test: Calculated free drug potency in SW48 cell assay, corrected with media free fraction (Example C); format: cell-based; settings: Homo sapiens, SW48, SW48 pCC50 corrected with measured free fraction in cell assay media
Method in brief: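 Compound spiked at nominal 1 μM into cell assay medium and dialysed against PBS (100 mM sodium phosphate, 150 mM NaCl, pH 7.4) by rapid equilibrium dialysis, 4 h, 37 °C, shaking. Percent unbound from LC-MS/MS peak area ratios (240 min vs 0 min); cell assay concentrations corrected by this free fraction.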

[4] = test system: SW48 human colorectal cancer cells (MSI-H cancer cells); test: SW48 cell viability, CellTiter-Glo, 120 hours (Example B); settings: for CC50: Homo sapiens
[5] = SW48, 120 h, read-out: SW48 pCC50, SW48 cell viability, 120 hours incubation (converted), Table 2
[6] = SW48, read-out: SW48 pCC50, measured potency from Example B, as repeated in Table 3 (converted)

IC50 [1] [nM]	fraction unbound at 4 h, 1 µM [2]	Structure (SMILES)	CC50 [3] [nM]	CC50 [4, 5] [nM]	CC50 [4, 6] [nM]	SW48 pCC50 ([4]; SW48 cell viability, 120 hours incubation, Table 2)
2	0.0433	Cc1nc2cc(S(=O)(=O)N(C)c3ccc([C@H]4CCC[C@@H](C(=O)Nc5ccc(C(F)(F)F)cc5F)[C@@H]4C(=O)O)cc3)ncc2n1C [Example 125, (1R,2R,6S)-2-((2-fluoro-4-(trifluoromethyl)phenyl)carbamoyl)-6-(4-((N,2,3-trimethyl-3H-imidazo[4,5-c]pyridine)-6-sulfonamido)phenyl)cyclohexane-1-carboxylic acid]	69.2	1580	1580	
1.58	0.175	CCO[C@@H]1C[C@H](c2ccc(N(C)S(=O)(=O)c3ccc4c(c3)nc(CO)n4C)cc2)[C@@H](C(=O)O)[C@H](C(=O)Nc2ccc(C(F)(F)F)cc2F)C1 [Example 373, (1R,2R,4R,6S)-4-ethoxy-2-((2-fluoro-4-(trifluoromethyl)phenyl)carbamoyl)-6-(4-((2-(hydroxymethyl)-N,1-dimethyl-1H-benzo[d]imidazole)-5-sulfonamido)phenyl)cyclohexane-1-carboxylic acid]	17.4	100	100	
1.58	0.118	Cc1cc([C@H]2CCC[C@@H](C(=O)Nc3ccc(C(F)(F)F)cc3F)[C@@H]2C(=O)O)ccc1N(C)S(=O)(=O)c1ccc2c(c1)nc(C)n2C [Example 295, (1R,2R,6S)-2-((2-fluoro-4-(trifluoromethyl)phenyl)carbamoyl)-6-(3-methyl-4-((N,1,2-trimethyl-1H-benzo[d]imidazole)-5-sulfonamido)phenyl)cyclohexane-1-carboxylic acid]	186	1580	1580	
1.58	0.144	Cc1nc2cc(S(=O)(=O)N(C)c3ccc([C@H]4C[C@@H](O[C@H]5CCOC5)C[C@@H](C(=O)Nc5ccc(C(F)(F)F)cc5F)[C@@H]4C(=O)O)cc3)ccc2n1C (stereo in doubt) [Example 323, (1R*,2R*,4R*,6S*)-2-((2-fluoro-4-(trifluoromethyl)phenyl)carbamoyl)-4-(((S)-tetrahydrofuran-3-yl)oxy)-6-(4-((N,1,2-trimethyl-1H-benzo[d]imidazole)-5-sulfonamido)phenyl)cyclohexane-1-carboxylic acid]	14.5	100	100	
3.98	0.113	Cc1nc2cc(S(=O)(=O)N(C)c3ccc([C@H]4CCC[C@@H](C(=O)Nc5ccc(C(F)(F)F)cc5F)[C@@H]4C(=O)O)c(F)c3)ccc2n1C (single isomer, unassigned) [Example 374]	44.7		398	6.4
1.58	0.19	COCCO[C@@H]1C[C@H](c2ccc(N(C)S(=O)(=O)c3ccc4c(c3)nc(C)n4C)cc2)[C@@H](C(=O)O)[C@H](C(=O)Nc2ccc(C(F)(F)F)cc2F)C1 (stereo in doubt) [Example 316, rel-(1R,2R,4R,6S)-2-((2-fluoro-4-(trifluoromethyl)phenyl)carbamoyl)-4-(2-methoxyethoxy)-6-(4-((N,1,2-trimethyl-1H-benzo[d]imidazole)-5-sulfonamido)phenyl)cyclohexane-1-carboxylic acid]	30.2	158	158	
5.01	0.118	Cc1nc2cc(S(=O)(=O)N(C)c3ccc([C@H]4C[C@@H](N5CCC(F)(F)CC5)C[C@@H](C(=O)Nc5ccc(C(F)(F)F)cc5F)[C@@H]4C(=O)O)cc3)ccc2n1C (stereo in doubt) [Example 344]	14.8	126	126	
5.01	0.128	Cc1nc2cc(S(=O)(=O)N(C)c3ccc([C@H]4CCC[C@@H](C(=O)Nc5ccc(C(F)(F)F)cc5F)[C@@H]4C(=O)O)cc3F)ccc2n1C (single isomer, unassigned) [Example 368]	102	794	794	
631	0.113	Cc1nc2cc(S(=O)(=O)N(C)c3ccc([C@@H]4CC(F)(F)C[C@H](C(=O)Nc5ccc(C(F)(F)F)cc5F)[C@H]4C(=O)O)cc3)ccc2n1C (single isomer, unassigned) [Example 364]	1120	10000		
3.98	0.028	Cc1nc2cc(S(=O)(=O)N(C)c3ccc([C@H]4C[C@H](N5CCCC(F)(F)C5)C[C@@H](C(=O)Nc5ccc(C(F)(F)F)cc5F)[C@@H]4C(=O)O)cc3)ccc2n1C (stereo in doubt) [Example 352, rel-(1R,2R,4S,6S)-4-(3,3-difluoropiperidin-1-yl)-2-((2-fluoro-4-(trifluoromethyl)phenyl)carbamoyl)-6-(4-((N,1,2-trimethyl-1H-benzo[d]imidazole)-5-sulfonamido)phenyl)cyclohexane-1-carboxylic acid]	112	3980	3980	
1.58	0.0205	Cc1nc2cc(S(=O)(=O)N(C)c3ccc([C@@H]4CCC[C@H](COc5ccc(C(F)(F)F)cc5)[C@H]4C(=O)O)cc3)cc([C@H]3CCCN(C)C3)c2n1C (single isomer, unassigned) [Example 212]	40.7	2000	2000	
1.58	0.15	Cc1nc2cc(S(=O)(=O)N(C)c3ccc([C@H]4C[C@@H](OC[C@H]5CCOC5)C[C@@H](C(=O)Nc5ccc(C(F)(F)F)cc5F)[C@@H]4C(=O)O)cc3)ccc2n1C (stereo in doubt) [Example 317, (1R*,2R*,4R*,6S*)-2-((2-fluoro-4-(trifluoromethyl)phenyl)carbamoyl)-4-(((S)-tetrahydrofuran-3-yl)methoxy)-6-(4-((N,1,2-trimethyl-1H-benzo[d]imidazole)-5-sulfonamido)phenyl)cyclohexane-1-carboxylic acid]	12	79.4	79.4	
3.98	0.128	Cc1nc2cc(S(=O)(=O)N(C)c3ccc([C@H]4C[C@@H](OCC5CCOCC5)C[C@@H](C(=O)Nc5ccc(C(F)(F)F)cc5F)[C@@H]4C(=O)O)cc3)ccc2n1C (stereo in doubt) [Example 355, rel-(1R,2R,4R,6S)-2-((2-fluoro-4-(trifluoromethyl)phenyl)carbamoyl)-4-((tetrahydro-2H-pyran-4-yl)methoxy)-6-(4-((N,1,2-trimethyl-1H-benzo[d]imidazole)-5-sulfonamido)phenyl)cyclohexane-1-carboxylic acid]	12.9	100	100	
1.58	0.231	CN(c1ccc([C@H]2CCC[C@@H](C(=O)Nc3ccc(C(F)(F)F)cc3F)[C@@H]2C(=O)O)cc1)S(=O)(=O)c1cccc(C(=O)N2CCOCC2)c1 [Example 119, (1R,2R,6S)-2-((2-fluoro-4-(trifluoromethyl)phenyl)carbamoyl)-6-(4-((N-methyl-3-(morpholine-4-carbonyl)phenyl)sulfonamido)phenyl)cyclohexane-1-carboxylic acid]	229	1000	1000	
